Assay results from patent US9957325B2, “Synthetic antibody mimic peptides” (Formurex, Inc., priority 2015, dated 2018).
Read-outs that look alike come from different tables or passages of the source. Blank lines part the entries; values can stand above or below the compound they belong to. Where a SMILES comes first, the peptide text is derived from it. The star is where a group is joined. X1 = CC[C@H](C)[C@@H]([C@@H](CC(=O)N1CCC[C@H]1[C@H](OC)[C@@H](C)C(=O)N[C@H](C)[C@@H](OC(=O)CCCCC(=NNC(=O)CCCCCN1C(=O)CC(*)C1=O)c1ccccc1)c1ccccc1)OC)N(C)C(=O)[C@@H](NC(=O)[C@H](C(C)C)N(C)C)C(C)C

Tests used:
A431 cells [1] = conditions: for IC50: A431, 72 h, SRB; for more potent than the drug alone: EGFR over-expressing cancer cells (A431, MDA-MB-468), vs auristatin E
Experimental: (§1) Cells were cultured to 80% confluency in T75 culture flasks using Dulbecco's Modified Eagle's Medium (DMEM) as growth medium. The cell density was determined using a Coulter Counter. The cells were seeded onto 96 well plates and grown for 24 h. to 50% confluency. […] At the end of the incubation period, the cells were fixed using 10% trichloroacetic acid, followed by washing with distilled water and drying. The cellular proteins were stained using 50 μL of 0.4% sulforhodamine B (SRB) in 1% acetic acid. Unbound SRB was washed with 1% acetic acid and the plates were dried overnight. The cell-bound SRB was then solubilized using 200 μL of 10 mM unbuffered Tris base solution. SRB absorbance was measured at 560 nm wavelength using a Plate Reader. The percent viability of cells was plotted as a function of log concentration and data was analyzed in GraphPad Prism Version 5.0 software (GraphPad Software, Inc., California, USA) using a nonlinear-regression curve fit (variable slope four parameter equation).

HEK 293 cells = conditions: for IC50: HEK 293, 72 h, SRB
Experimental: as §1

MDA-MB-468 cells [2] = test: In vitro cytotoxicity, sulforhodamine B assay; assay type: cell-based; conditions: MDA-MB-468, 72 h, SRB
Experimental: as §1

[3] = molecular target: T1, HER2 recombinant human protein (Homo sapiens, UniProt P04626); test: Surface plasmon resonance on immobilized HER2; assay type: binding; conditions: SPR
T1 construct: purchased Life Technologies / Thermo Fisher Scientific Inc
Experimental: All experiments were carried out at 25° C. with a data collection rate of 2 Hz. The running method was created using the Autolink control software. PBS with 0.01% Tween 20 (pH7.4) buffers were filtered and thoroughly degassed before use. HER2 recombinant human protein was covalently attached to the left channel of a 500,000 Da carboxymethylated dextran sensor chip using EDC and NHS chemistries. Then, the chip was blocked by passing EA for 8 minutes at a rate of 10 μL/min. […] Triplicate determinations were done at each concentration. The bound surface was regenerated by sequential injections of 10 mM glycine in PBST (pH 2.5).
The sensorgrams from SPR were globally treated using Scrubber 2® software where all traces were zeroed, cropped, aligned, and referenced. Kinetic constants ka and kd were determined by global fitting analyses of the titration curves using the 1:1 Lagmurian interaction model taking into account the mass transport. The equilibrium dissociation constant (KD) was calculated from the kd/ka ratio.

[4] = system: MDA-MB-361, ZR-75-1 and HEK293 cells; test: Confocal microscopy binding of FITC labeled HER2-PEPs; assay type: cell-based; conditions: 10 μM FITC labeled peptide, 15 minutes at 37° C.
Experimental: MDA-MB-361, ZR-75-1 and […] cells were grown in T75 flasks at 37° C. and 5% CO2. Upon reaching 80% confluency, the cells were counted and seeded onto coverslips placed inside 6-well culture plates at a density of 80,000 cells/well. The cells were allowed to attach for 24 hours before the experiment was performed. Upon attachment, the cells were washed twice with HBSS and serum free media.
Stock solutions of FITC labeled HER2-PEPs and control peptide were prepared with dimethyl sulfoxide (DMSO). Stock solutions were diluted with serum free media medium several times and less than 1% of DMSO was presented in the final solutions of all peptides (10 μM), which were added to the 6-well culture plates.
After incubating 15 minutes at 37° C., the medium was removed and the cells were washed twice with HBSS. The cells were then treated with a 2.5 μg/mL solution of Alexa fluor 594 wheat germ agglutinin in HBSS for 10 minutes to stain the cell plasma membrane. The dye solution was removed and cells were washed twice with HBSS. The cells were then fixed by performing a 15 minute treatment using 4% paraformaldehyde solution prepared in HBSS. The cells were washed with HBSS followed by a final wash of distilled water. […] The FITC fluorescence was visualized using 491 nm and the Alexa fluor 594 fluorescence was visualized using 561 nm wavelength filter.

[5] = Peptide-drug conjugate pH hydrolysis study; assay type: physicochemical
Experimental: Peptide-drug conjugate was evaluated for half-life determination at pH 5 and 7.4. For this, a 1 mg/mL concentration of PDC was incubated in ammonium bicarbonate buffers, pH 5 and 7.4. Degradation of PDC was evaluated by calculating the area under the curve after 0, 0.5, 1, 2, 4, 6 and 48 hours using HPLC with a gradient method, with TEAA buffer pH 7 and acetonitrile.

Recombinant human EGFR = Recombinant human EGFR (Homo sapiens, UniProt P00533); test: Surface plasmon resonance on immobilized EGFR; conditions: SPR, EGFR as immobilized surface, 1:1 binding model, 25° C.
Experimental: Binding affinity constant of antibody mimics was calculated by surface plasmon resonance (Reichert SR7000DC). A carboxymethyl dextran gold sensor chip was activated by N-hydroxysuccinimide (NHS) and N-ethyl-N″-[3-([…])propyl] carbodiimide (EDC) at 25° C. using phosphate buffered saline pH 7.4 with 0.05% tween 20 as running buffer. […] Unreactive sites were blocked by flowing over the chip 1 M ethanolamine pH 8.5 at 10 μL/min for 8 minutes. […] The resulting sensograms were globally fitted using Scrubber2 software (BioLogic Software, Campbell, Australia) in a 1:1 binding model to determine the association rate (kon), dissociation rate (kd or koff), and dissociation constant KD.

[6] = system: A431, MDA-MB-468 and HEK 293 cells; test: Confocal binding/internalization of FITC labeled peptides; assay type: cell-based
Experimental: (§2) A431, MDA-MB-468 and HEK 293 cells were cultured in 75 cm^2 culture flasks in DMEM supplemented with 10% FBS. For binding/internalization studies, 5×10^5 cells were seeded in cover slips in 6 well culture plates overnight. After the medium was removed, the cells were washed with HBSS and then cells were treated with FITC labeled antibody mimic and scrambled (control) peptide in serum free DMEM for 30 minutes at 37° C. Cells were then washed with HBSS to remove any unbound peptides and incubated with AlexaFluor 594 wheat germ agglutinin to stain cell membranes. Cells were fixed with 4% paraformaldehyde and cover slips were mounted on slides which contain a drop of SlowFade®. Cells were then imaged with an inverted Leica DMIRE2 fluorescence microscope (Leica Biosystems Richmond Inc., Richmond, USA) using a Yokogawa CSUX1 confocal scanner unit. For flow cytometry studies, cells were washed with HBSS after incubation with antibody mimics, control peptide for 30 minutes, and dissociated using trypsin-EDTA. Cells were then centrifuged at 500 g for 5 min. Supernatant was removed and cell pellets were re-suspended in FACS solution. The cell suspension was then analyzed on a Beckman Coulter flow cytometer and data were analyzed using the Cell Questpro. A total of 10000 events were collected monitoring FITC.

A431 cells [7] = test: Flow cytometry uptake of FITC labeled peptides; assay type: cell-based
Experimental: as §2

MDA-MB-468 cells [8] = test: Flow cytometry uptake of FITC labeled peptides; assay type: cell-based
Experimental: as §2

Sequence of Recombinant human EGFR (P00533 25-1210): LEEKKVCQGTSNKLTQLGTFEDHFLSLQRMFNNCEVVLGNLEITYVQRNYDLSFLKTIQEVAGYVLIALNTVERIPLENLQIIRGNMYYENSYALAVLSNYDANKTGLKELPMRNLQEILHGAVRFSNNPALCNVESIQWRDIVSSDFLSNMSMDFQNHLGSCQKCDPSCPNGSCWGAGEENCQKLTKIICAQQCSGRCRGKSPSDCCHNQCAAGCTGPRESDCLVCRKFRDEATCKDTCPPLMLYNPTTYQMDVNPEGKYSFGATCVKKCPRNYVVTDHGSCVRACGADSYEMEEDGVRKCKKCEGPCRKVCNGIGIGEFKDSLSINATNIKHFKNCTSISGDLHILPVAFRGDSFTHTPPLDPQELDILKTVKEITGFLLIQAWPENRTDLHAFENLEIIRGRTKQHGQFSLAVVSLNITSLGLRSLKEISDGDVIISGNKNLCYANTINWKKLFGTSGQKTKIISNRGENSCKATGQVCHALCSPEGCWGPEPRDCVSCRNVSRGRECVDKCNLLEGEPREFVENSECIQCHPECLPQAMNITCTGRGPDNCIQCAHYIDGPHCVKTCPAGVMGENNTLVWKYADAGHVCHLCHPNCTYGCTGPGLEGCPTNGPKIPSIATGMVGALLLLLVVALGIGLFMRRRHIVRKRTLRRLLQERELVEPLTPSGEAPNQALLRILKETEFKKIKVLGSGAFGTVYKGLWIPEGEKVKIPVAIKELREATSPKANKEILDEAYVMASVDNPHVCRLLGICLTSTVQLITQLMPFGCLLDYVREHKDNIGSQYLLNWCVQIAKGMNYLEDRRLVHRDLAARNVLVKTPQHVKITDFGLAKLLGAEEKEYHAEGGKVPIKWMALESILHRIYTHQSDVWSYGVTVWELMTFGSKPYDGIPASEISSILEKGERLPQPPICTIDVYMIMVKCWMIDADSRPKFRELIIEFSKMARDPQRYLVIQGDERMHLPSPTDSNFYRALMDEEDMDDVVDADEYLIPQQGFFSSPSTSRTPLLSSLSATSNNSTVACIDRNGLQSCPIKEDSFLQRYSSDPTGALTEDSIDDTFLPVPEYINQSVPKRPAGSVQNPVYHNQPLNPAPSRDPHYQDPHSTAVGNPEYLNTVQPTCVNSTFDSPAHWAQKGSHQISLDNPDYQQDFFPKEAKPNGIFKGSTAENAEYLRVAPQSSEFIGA
T1 sequence (P04626 23-1255): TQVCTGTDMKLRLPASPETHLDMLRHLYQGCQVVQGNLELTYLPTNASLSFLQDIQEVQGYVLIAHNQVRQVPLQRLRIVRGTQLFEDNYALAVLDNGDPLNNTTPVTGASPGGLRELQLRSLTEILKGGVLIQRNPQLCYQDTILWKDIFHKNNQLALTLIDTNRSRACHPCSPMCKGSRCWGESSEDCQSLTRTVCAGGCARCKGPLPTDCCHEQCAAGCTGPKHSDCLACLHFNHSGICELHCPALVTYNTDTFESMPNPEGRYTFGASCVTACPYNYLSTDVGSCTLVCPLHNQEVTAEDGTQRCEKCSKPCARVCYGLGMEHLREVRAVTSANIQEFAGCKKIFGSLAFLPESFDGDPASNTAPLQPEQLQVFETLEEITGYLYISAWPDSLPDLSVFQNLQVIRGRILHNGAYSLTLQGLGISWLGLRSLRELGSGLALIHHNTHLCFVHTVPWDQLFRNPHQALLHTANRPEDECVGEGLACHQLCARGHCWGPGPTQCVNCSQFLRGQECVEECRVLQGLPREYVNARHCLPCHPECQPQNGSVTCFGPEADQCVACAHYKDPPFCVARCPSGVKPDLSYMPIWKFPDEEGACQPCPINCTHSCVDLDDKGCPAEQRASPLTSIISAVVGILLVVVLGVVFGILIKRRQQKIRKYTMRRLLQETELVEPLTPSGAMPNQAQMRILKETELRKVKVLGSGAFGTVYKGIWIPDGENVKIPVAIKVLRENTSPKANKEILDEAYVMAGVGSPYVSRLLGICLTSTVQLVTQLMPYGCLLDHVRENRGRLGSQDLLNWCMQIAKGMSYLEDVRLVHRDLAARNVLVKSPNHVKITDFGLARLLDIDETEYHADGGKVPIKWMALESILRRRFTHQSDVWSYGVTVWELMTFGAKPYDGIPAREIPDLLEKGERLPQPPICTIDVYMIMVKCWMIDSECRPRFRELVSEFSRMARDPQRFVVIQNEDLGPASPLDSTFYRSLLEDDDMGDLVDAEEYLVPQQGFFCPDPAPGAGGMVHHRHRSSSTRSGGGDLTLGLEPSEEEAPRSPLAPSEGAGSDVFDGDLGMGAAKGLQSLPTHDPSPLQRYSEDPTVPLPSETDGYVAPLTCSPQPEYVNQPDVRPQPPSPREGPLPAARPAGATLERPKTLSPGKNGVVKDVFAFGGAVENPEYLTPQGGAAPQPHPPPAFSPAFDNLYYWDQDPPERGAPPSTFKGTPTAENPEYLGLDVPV

Compound: CC[C@H](C)[C@@H]([C@@H](CC(=O)N1CCC[C@H]1[C@H](OC)[C@@H](C)C(=O)N[C@H](C)[C@@H](O)c1ccccc1)OC)N(C)C(=O)[C@@H](NC(=O)[C@H](C(C)C)N(C)C)C(C)C [Auristatin E, reference compound]
IC50 (A431 cells [1]): 0.0246 nM | IC50 (HEK 293 cells): 0.0626 nM | IC50 (MDA-MB-468 cells [2]): 0.0117 nM

KD higher than that of HER2-PEP11 and HER2-PEP21 [3]: about 2000 fold | kd ([3]; HER2 immobilized, 1:1 model, 25° C.): 0.0181 s⁻¹ | kon ([3]; HER2 immobilized, 1:1 model, 25° C., read-out: ka): 131 M⁻¹ s⁻¹
Compound: CC(C)C[C@H](NC(=O)[C@H](Cc1ccccc1)NC(=O)CNC(=O)[C@H](C)NC(=O)[C@H](CC(=O)O)NC(=O)[C@H](CC(N)=O)NC(=O)[C@@H]1CCCN1C(=O)[C@H](Cc1ccc(O)cc1)NC(=O)CNC(=O)[C@H](CCC(N)=O)NC(=O)[C@@H]1CCCN1C(=O)[C@H](CO)NC(=O)[C@@H](N)[C@@H](C)O)C(=O)NCC(=O)N[C@@H](CCCNC(=N)N)C(=O)N[C@@H](CCC(=O)O)C(=O)N[C@@H](CO)C(=O)N[C@H](C(=O)N[C@@H](CC(N)=O)C(=O)O)[C@@H](C)O [HER2-Pep22] (H-TSPQGYPNDAGFLGRESTN-OH; N-terminus and C-terminus assumed)
binding to cells, confocal microscopy [4]: no binding to all the three cell lines

Compound: CC[C@H](C)[C@@H]([C@@H](CC(=O)N1CCC[C@H]1[C@H](OC)[C@@H](C)C(=O)N[C@H](C)[C@@H](OC(=O)CCCCC(=NNC(=O)CCCCCN1C(=O)CC(SC[C@H](NC(=O)[C@H](C)NC(=O)[C@H](CCC(=O)O)NC(=O)[C@H](Cc2ccc(O)cc2)NC(=O)[C@H](CC(=O)O)NC(=O)[C@H](Cc2ccc(O)cc2)NC(=O)[C@H](Cc2ccccc2)NC(=O)[C@@H](NC(=O)CNC(=O)[C@@H]2CCCN2C(=O)CNC(=O)[C@H](CC(N)=O)NC(=O)[C@H](CCC(=O)O)NC(=O)CNC(=O)[C@H](CO)NC(=O)[C@@H](N)Cc2c[nH]c3ccccc23)[C@@H](C)O)C(=O)O)C1=O)c1ccccc1)c1ccccc1)OC)N(C)C(=O)[C@@H](NC(=O)[C@H](C(C)C)N(C)C)C(C)C (some centres unmarked) [PDC] (H-WSGENGPGTFYDYEAC(X1)-OH; N-terminus and C-terminus assumed)
half-life at 1 mg/mL ([5]; pH 5, ammonium bicarbonate buffer): 2.8 h | half-life at 1 mg/mL ([5]; pH 7.4, ammonium bicarbonate buffer): > 48 h | more potent than the drug alone (A431 cells [1]): approximately 10 fold | more potent than the drug alone (A431 cells [1]; listed as Peptide-drug conjugate): around 10 fold | potency lower than drug alone (HEK 293 cells; control cells (HEK 293), vs auristatin E): more than 100 fold

koff (Recombinant human EGFR): 0.00581 s⁻¹ | kon (Recombinant human EGFR): 1210 M⁻¹ s⁻¹
Compound: C[C@H](NC(=O)[C@H](CCC(=O)O)NC(=O)[C@H](Cc1ccc(O)cc1)NC(=O)[C@H](CC(=O)O)NC(=O)[C@H](Cc1ccccc1)NC(=O)[C@H](Cc1ccc(O)cc1)NC(=O)CNC(=O)[C@@H]1CCCN1C(=O)CNC(=O)[C@H](CC(N)=O)NC(=O)[C@H](CCC(=O)O)NC(=O)CNC(=O)[C@H](CO)NC(=O)[C@@H](N)Cc1c[nH]c2ccccc12)C(=O)O [Pep6] (H-WSGENGPGYFDYEA-OH; N-terminus and C-terminus assumed)

Compound: C[C@H](NC(=O)[C@H](CCC(=O)O)NC(=O)[C@H](Cc1ccc(O)cc1)NC(=O)[C@H](CC(=O)O)NC(=O)[C@H](Cc1ccc(O)cc1)NC(=O)[C@H](Cc1ccccc1)NC(=O)CNC(=O)[C@@H]1CCCN1C(=O)CNC(=O)[C@H](CC(N)=O)NC(=O)[C@H](CCC(=O)O)NC(=O)CNC(=O)[C@H](CO)NC(=O)[C@@H](N)Cc1c[nH]c2ccccc12)C(=O)O [Pep11] (H-WSGENGPGFYDYEA-OH; N-terminus and C-terminus assumed)
Kd (Recombinant human EGFR): 252 nM | koff (Recombinant human EGFR): 0.0252 s⁻¹ | kon (Recombinant human EGFR): 100000 M⁻¹ s⁻¹ | binding to cells after cetuximab pre-incubation ([6]; EGFR blocked by cetuximab for 30 min, A431 and MDA-MB-468): inhibited/decreased | IC50 (A431 cells [1]): 388 nM | IC50 (HEK 293 cells): 1040 nM | lower potency towards control cells compared to cancer cells (HEK 293 cells; HEK 293 vs cells that over-express EGFR): 2- to 3 fold | IC50 (MDA-MB-468 cells [2]): 420 nM

koff (Recombinant human EGFR): 0.0259 s⁻¹ | kon (Recombinant human EGFR): 43500 M⁻¹ s⁻¹
Compound: C[C@H](NC(=O)[C@H](CCC(=O)O)NC(=O)[C@H](Cc1ccc(O)cc1)NC(=O)[C@H](CC(=O)O)NC(=O)[C@H](Cc1ccc(O)cc1)NC(=O)[C@H](Cc1ccccc1)NC(=O)[C@@H](NC(=O)CNC(=O)[C@@H]1CCCN1C(=O)CNC(=O)[C@H](CC(N)=O)NC(=O)[C@H](CCC(=O)O)NC(=O)CNC(=O)[C@H](CO)NC(=O)[C@@H](N)Cc1c[nH]c2ccccc12)[C@@H](C)O)C(=O)O [Pep22] (H-WSGENGPGTFYDYEA-OH; N-terminus and C-terminus assumed)

koff (Recombinant human EGFR): 0.103 s⁻¹ | kon (Recombinant human EGFR): 14300 M⁻¹ s⁻¹
Compound: C[C@H](N)C(=O)N[C@@H](CCC(=O)O)C(=O)N[C@@H](Cc1ccc(O)cc1)C(=O)N[C@@H](CC(=O)O)C(=O)N[C@@H](Cc1ccccc1)C(=O)N[C@@H](Cc1ccc(O)cc1)C(=O)NCC(=O)N1CCC[C@H]1C(=O)NCC(=O)N[C@@H](CC(N)=O)C(=O)N[C@@H](CCC(=O)O)C(=O)NCC(=O)N[C@@H](CO)C(=O)N[C@@H](Cc1c[nH]c2ccccc12)C(=O)O [Pep24] (H-AEYDFYGPGNEGSW-OH; N-terminus and C-terminus assumed)

Compound: SGEWAYDGYEPNFG (Synthetic amino acid - Control) [Pep25, scrambled peptide, negative control]
binding to cells, confocal fluorescence ([6]; FITC labeled peptide, 30 minutes at 37° C.): negligible binding | binding to cancer cell line, flow cytometry (A431 cells [7]): negligible binding | binding to cancer cell line, flow cytometry (MDA-MB-468 cells [8]): negligible binding
